# Laboratory results taken from patent US20110045101A1, “FUNGICIDAL SUBSTITUTED AZOLES” (E.I. Du Pont De Nemours and Company, priority 2009, published 2011).
# Marks after values point to notes of the source that are not given here.
# Legend:
# Assay type in all cases: in vivo
# Conditions in all cases: 100 = 100% disease control, 0 = no control
# Botrytis cinerea = assay: Test C: tomato Botrytis on tomato seedlings, sprayed the day before inoculation, visual disease rating
# Procedure, shortened: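 Rate: 200 ppm sprayed to run-off, corresponding to 500 g/ha; flagged values used 40 ppm. Vehicle was aqueous acetone (1:1) plus 250 ppm surfactant, compounds predissolved in acetone at 3% of volume. Plants were tomato seedlings.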
# Alternaria solani = assay: Test D: tomato early blight, sprayed the day before inoculation, visual disease rating
# Procedure, shortened: (§1)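 Plants received a run-off spray at 200 ppm (equivalent to 500 g/ha) or, for starred values, 40 ppm. Formulation used acetone at 3% of volume in a 50/50 acetone/water mix carrying 250 ppm Trem® 014.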
# Septoria nodorum = assay: Test F: wheat glume blotch on wheat seedlings, sprayed the day before inoculation, visual disease rating
# Procedure, shortened: as §1
# Septoria tritici = assay: Test G: wheat leaf blotch on wheat seedlings, sprayed the day before inoculation, visual disease rating
# Procedure, shortened: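 Seedlings receive a protective spray of test suspension in acetone/water carrying 250 ppm surfactant, mostly at 200 ppm and at 40 ppm where marked. They are inoculated the next day, kept saturated at 24° C for 48 h, then held at 20° C for 19 days before visual scoring.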
# [1] = test system: Puccinia recondita f. sp. tritici; assay: Test I: wheat leaf rust on wheat seedlings, sprayed the day before inoculation, visual disease rating
# Procedure, shortened: as §1
# [2] = test system: Erysiphe graminis f. sp. tritici; assay: Test J: wheat powdery mildew on wheat seedlings, sprayed the day before inoculation, visual disease rating
# Procedure, shortened: as §1
SMILES,Test C disease control rating (Botrytis cinerea; 40 ppm (marked *)),Test D disease control rating (Alternaria solani; 40 ppm (marked *)),Test F disease control rating (Septoria nodorum; 40 ppm (marked *)),Test G disease control rating (Septoria tritici; 40 ppm (marked *)),Test I disease control rating ([1]; 40 ppm (marked *)),Test J disease control rating ([2]; 40 ppm (marked *)),Test C disease control rating (Botrytis cinerea; 200 ppm),Test D disease control rating (Alternaria solani; 200 ppm),Test F disease control rating (Septoria nodorum; 200 ppm),Test G disease control rating (Septoria tritici; 200 ppm),Test I disease control rating ([1]; 200 ppm),Test J disease control rating ([2]; 200 ppm)
Cc1nc(Cl)c(-c2c(F)cc(F)cc2F)n1-c1ccc(F)cc1 [compound 167],99* %,100* %,0* %,95* %,0* %,98* %,–,–,–,–,–,–
Cc1ccc(-n2c(C)nc(Cl)c2-c2c(F)cc(F)cc2F)cc1 [compound 168],–,–,–,–,–,–,97%,99%,84%,98%,100%,100%
Fc1ccc(-n2c(Br)nc(Cl)c2-c2c(F)cccc2F)cc1F [compound 169],–,–,–,–,–,–,99%,100%,40%,96%,88%,99%
Cc1ccc(-n2c(Br)nc(Cl)c2-c2c(F)cccc2F)cc1F [compound 170],–,–,–,–,–,–,97%,98%,0%,95%,99%,99%
COc1cc(F)c(-c2c(Cl)nc(Br)n2-c2ccc(Cl)cc2)c(Cl)c1 [compound 171],–,–,–,–,–,–,99%,100%,100%,98%,98%,99%
COc1cc(F)c(-c2c(Cl)nc(C)n2-c2ccc(Cl)cc2)c(Cl)c1 [compound 172],–,–,–,–,–,–,99%,99%,100%,98%,99%,99%
COc1cc(F)c(-n2cnc(Br)c2-c2ccc(Cl)cc2)c(F)c1 [compound 173],98* %,0* %,0* %,90* %,41* %,0* %,–,–,–,–,–,–
Cc1nc(Cl)c(-c2c(F)cccc2F)n1-c1ccc(F)c(F)c1 [compound 174],–,–,–,–,–,–,98%,99%,82%,98%,100%,100%
Cc1ccc(-n2c(C)nc(Cl)c2-c2c(F)cccc2F)cc1F [compound 175],–,–,–,–,–,–,97%,97%,82%,98%,100%,99%
Fc1ccc(-n2cnc(Cl)c2-c2c(F)ccc(F)c2Cl)cc1 [compound 176],–,–,–,–,–,–,96%,91%,0%,87%,99%,99%
Cc1ccc(-n2cnc(Cl)c2-c2c(F)ccc(F)c2Cl)cc1 [compound 177],–,–,–,–,–,–,88%,0%,0%,79%,99%,99%
Fc1ccc(-n2c(Br)nc(Cl)c2-c2ccc(F)cc2Cl)cc1 [compound 182],–,–,–,–,–,–,99%,100%,73%,96%,97%,99%
Fc1ccc(-n2c(Cl)nc(Cl)c2-c2ccc(F)cc2Cl)cc1 [compound 183],99* %,91* %,0* %,85* %,66* %,48* %,–,–,–,–,–,–
Cc1ccc(-n2c(Br)nc(Cl)c2-c2ccc(F)cc2Cl)cc1 [compound 184],–,–,–,–,–,–,99%,100%,0%,97%,100%,100%
Fc1ccc(-n2c(Br)nc(Cl)c2-c2c(F)cccc2Cl)cc1 [compound 185],–,–,–,–,–,–,99%,100%,78%,94%,100%,99%
Cc1ccc(-n2c(Br)nc(Cl)c2-c2c(F)cccc2Cl)cc1 [compound 186],–,–,–,–,–,–,98%,88%,0%,97%,100%,100%
Cc1nc(Cl)c(-c2ccc(F)cc2Cl)n1-c1ccc(F)cc1 [compound 187],–,–,–,–,–,–,99%,100%,94%,97%,100%,100%
Cc1ccc(-n2c(C)nc(Cl)c2-c2ccc(F)cc2Cl)cc1 [compound 188],–,–,–,–,–,–,98%,100%,0%,97%,100%,99%
Cc1nc(Cl)c(-c2c(F)cccc2Cl)n1-c1ccc(F)cc1 [compound 189],–,–,–,–,–,–,98%,100%,51%,97%,100%,99%
Cc1ccc(-n2c(C)nc(Cl)c2-c2c(F)cccc2Cl)cc1 [compound 190],–,–,–,–,–,–,97%,100%,0%,93%,100%,100%
N#Cc1cc(F)c(-c2c(Cl)ncn2-c2ccc(Cl)cc2)c(F)c1 [compound 193],–,–,–,–,–,–,99%,100%,0%,98%,97%,98%
COc1ccc(Cn2cnc(Cl)c2-c2c(F)cccc2F)cc1 [compound 194],–,–,–,–,–,–,99%,95%,73%,97%,100%,96%
Fc1ccc(-n2c(Br)nc(Cl)c2-c2c(F)ccc(F)c2Cl)cc1 [compound 195],–,–,–,–,–,–,99%,100%,64%,94%,100%,94%
Fc1ccc(-n2c(Cl)nc(Cl)c2-c2c(F)ccc(F)c2Cl)cc1 [compound 196],–,–,–,–,–,–,99%,100%,0%,92%,100%,97%
Cc1ccc(-n2c(Br)nc(Cl)c2-c2c(F)ccc(F)c2Cl)cc1 [compound 197],–,–,–,–,–,–,99%,99%,0%,93%,100%,100%
Cc1ccc(-n2c(Cl)nc(Cl)c2-c2c(F)ccc(F)c2Cl)cc1 [compound 198],–,–,–,–,–,–,98%,99%,0%,90%,100%,95%
Cc1nc(Cl)c(-c2c(F)cccc2F)n1-c1cnc2ccccc2c1 [compound 199],–,–,–,–,–,–,92%,100%,100%,96%,98%,95%
Fc1cccc(F)c1-n1cnc(Br)c1-c1ccc(Cl)cc1 [compound 200],–,–,–,–,–,–,0%,0%,0%,45%,0%,21%
N#Cc1cc(F)c(-c2c(Cl)nc(Br)n2-c2ccc(Cl)cc2)c(F)c1 [compound 201],–,–,–,–,–,–,99%,100%,100%,98%,96%,100%
Fc1ccc(-c2c(Cl)nc(Br)n2-c2ccc(Cl)c(F)c2)c(Cl)c1 [compound 202],–,–,–,–,–,–,91%,61%,98%,97%,98%,100%
